Results on one compound are retold here after US20220340665A1, “INHIBITOR AGAINST EXPRESSION OF IMMUNE CHECKPOINT MOLECULE” (RENASCIENCE INC., priority 2019, published 2022).

“Also recorded” adds a separate entry of the source.

The subject of assay [1] is mouse leukemia cell line (32Dp210). The assay can be described thus: PD-L1 expression level by flow cytometry in 32Dp210 cells (Experimental Examples 2 and 3). The note with it: inhibitor 50 μM with rPAI-1 40 nM, 2 days, listed as PAI-1 inhibitor. In kind it is cell-based. An excerpt:
In order to analyze the characteristics of cancer cells highly expressing PAI-1, a rouse leukemia cell line (obtained by transfecting 32D cells, i.e., a myelomonocytic progenitor cell line, with BCR-ABL; referred to below as “32Dp210”) was transfected with PAI-1 to produce cells overexpressing PAI-1 (32d PAI-1 OE). Next, in order to analyze the expression level of PD-L1, which is an ICM, in the cells, the cells were stained with an anti-PD-L1 antibody (clone name: 10F.G92) labeled with Allophycocyanin (APC) as a fluorescent dye, and subjected to flow cytometry. As a comparative control experiment, a 32Dp210 cell line without transfection of PAI-1 (wild-type cells: 32D WT) was analyzed in the same manner for the PD-L1 expression level.
Specifically, artificially produced recombinant PAI-1 (referred to below as “rPAI-1”; 40 nM) or a culture supernatant of the cells overexpressing PAI-1 (32d PAI-1 OE) prepared in Experimental Example 1 (PAI-1 OE sup; containing a high concentration of PAI-1) was added to 5×10^4 cells of a mouse leukemia cell line (32Dp210), and the cells were cultured on a 96-well plate at 37° C., 5% CO2, for 2 days. Next, the PD-L1 expression level was determined by flow cytometry in the same manner as in Experimental Example 1. As a comparative control experiment, the PD-L1 expression level in untreated mouse leukemia cells (control) was measured in the same manner. […]
(In flow cytometry, cells or beads pass a laser one at a time.)

The test system of assay [2] is mouse malignant melanoma cell line (B16F10). The assay can be described thus: PD-L1 expression level by flow cytometry in B16F10 cells (Experimental Example 3). The settings on record: inhibitor 50 μM with rPAI-1 40 nM, 2 days, listed as PAI-1 inhibitor. In kind it is cell-based. Here is the method:
Next, the PD-L1 expression level was determined by flow cytometry in the same manner as in Experimental Example 1.
Likewise, a mouse colorectal cancer cell line (MC38) and a mouse malignant melanoma cell line (B16F10) were also tested in the same manner, instead of the mouse leukemia cell line (32Dp210).

Assay [3] relates to M2 macrophages (CD11b+CD206+). The assay can be described thus: PD-L1 expression in M2 macrophages from cultured mouse spleen cells (Experimental Example 6). The note with it: inhibitor 50 μM with rPAI-1 100 nM, 4 days; listed as PAI-1 inhibitor. The assay is classed as cell-based. On the procedure: Specifically, 5×10^6 mouse spleen cells were cultured on a 24-well plate at 37° C., 5% CO2, overnight. After floating cells were removed, rPAI-1 (100 nM) was added, and culturing was performed at 37° C., 5% CO2, for 4 days. After culture, adherent cells were collected by trypsin treatment and stained with an anti-CD11b antibody and an anti-CD206 antibody, in addition to an anti-PD-L1 antibody. Then, gating was performed on CD11b and CD206 double-positive (CD11b^+CD206^+) M2 macrophages, and the PD-L1 expression level thereof was determined with a flow cytometer. As a comparative control experiment, the PD-L1 expression level in untreated mouse spleen cells (control) was determined in the same manner. Further, the PAI-1 inhibitor (50 μM) was added to the same mouse spleen cells, together with rPAI-1 (100 nM), followed by culture under the same conditions as described above. Then, adherent cells were collected and the PD-L1 expression level was determined with a flow cytometer in the same manner.

Assay [4] relates to M2 macrophages (CD11b+CD206+). The assay can be described thus: PD-L1 expression in M2 macrophages of orally dosed mice (Experimental Example 7). In kind it is in vivo, mice (C57BL6). The note with it: peripheral blood; 10 mg/kg orally once daily, 7 days; vs vehicle. Here is the method:
Mice (C57BL6) were orally administered with the PAI-1 inhibitor once daily at 10 mg/kg for a total of 7 days. On the next day of the final administration, the peripheral blood or the spleen was collected from the mice. The spleen was mechanically dispersed through nylon mesh. The peripheral blood and spleen cells were independently hemolyzed with an ammonium chloride solution, and the PD-L1 expression level in M2 macrophages (CD11b^+CD206^+) was determined with a flow cytometer. As a comparative control experiment, the peripheral blood or the spleen was collected in the same manner from a mouse group to which only physiological saline (vehicle) was administered to determine the PD-L1 expression level in M2 macrophages (CD11b^+CD206^+).

A further assay concerns M2 macrophages. The assay can be described thus: Macrophages and M2 macrophages in MC38 tumor mass by flow cytometry (Experimental Example 13). The assay is classed as in vivo, mice (C57BL6). The settings on record: oral administration for one week, vs vehicle. On the procedure: 1) The untreated group and 3) the single-administration group of PAI-1 inhibitor (cancer-bearing mice) of Experimental Example 11, after tumor engraftment, were orally administered with physiological saline (vehicle) or the PAI-1 inhibitor for one week. Thereafter, the tumors were collected, and the M2 macrophages were stained with an anti-CD45 antibody, an anti-CD11b antibody, an anti-F4/80 antibody, and an anti-CD206 antibody, and the percentage of M2 macrophages in the tumor mass was analyzed with a flow cytometer.

Assay [5] concerns regulatory T cells (Treg). Kind of assay: Regulatory T cells in MC38 tumor mass by flow cytometry (Experimental Example 14). The assay is classed as in vivo, mice (C57BL6). The note with it: oral administration for one week, vs vehicle. Here is the method:
1) The untreated group and 3) the single-administration group of PAI-1 inhibitor (cancer-bearing mice) of Experimental Example 11, after tumor engraftment, were orally administered with physiological saline (vehicle) or the PAI-1 inhibitor for one week. Thereafter, the tumors were collected, the cells were stained with an anti-CD45 antibody, an anti-CD4 antibody, an anti-CD25 antibody, and an anti-foxp3 antibody, and the percentage of regulatory T cells (Treg) in the tumor mass was analyzed with a flow cytometer.

Assay [6] relates to cancer-associated fibroblasts (CAF). Kind of assay: Cancer-associated fibroblasts in MC38 tumor sections (Experimental Example 15). The settings on record: oral administration for one week, vs vehicle. In kind it is in vivo, mice (C57BL6). The source says:
1) The untreated group and 3) the single-administration group of PAI-1 inhibitor (cancer-bearing mice) of Experimental Example 11, after tumor engraftment, were orally administered with physiological saline (vehicle) or the PAI-1 inhibitor for one week. Thereafter, the tumor was collected, fixed with paraformaldehyde, and then embedded in paraffin to prepare tissue sections. The tissue sections were stained with an anti-SMAcα antibody, and the percentage of cancer-associated fibroblasts (CAF) was observed under a microscope.

The target of a further assay is human PAI-1 (Homo sapiens, UniProt P05121). Kind of assay: PAI-1 inhibitory activity, t-PA with Spectrozyme t-PA chromogenic substrate (Reference Experimental Example 2). The settings on record: system without compound after 120 minutes = 100%. In kind it is biochemical. Further details: purchased Molecular Innovations, Inc. (USA). On the procedure:
Subsequently, human-derived tissue plasminogen activator (t-PA) (manufactured by American Diagnostica, Inc. (USA); the same applies hereinafter) adjusted to 0.05 pmol/μL was added thereto, and the mixture was further incubated at 37° C. for 60 minutes. Then, 0.25 mM of Spectrozyme t-PA synthetic substrate (manufactured by American Diagnostica, Inc. (USA); the same applies hereinafter), which is a chromogenic substrate, was added. […]
Free p-nitroaniline removed from the chromogenic substrate (Spectrozyme t-PA) by t-PA action was measured using a spectrophotometer at an absorbance of 405 nm at 20-minute intervals, for 120 minutes.

Sequence of human PAI-1 (P05121 24-402): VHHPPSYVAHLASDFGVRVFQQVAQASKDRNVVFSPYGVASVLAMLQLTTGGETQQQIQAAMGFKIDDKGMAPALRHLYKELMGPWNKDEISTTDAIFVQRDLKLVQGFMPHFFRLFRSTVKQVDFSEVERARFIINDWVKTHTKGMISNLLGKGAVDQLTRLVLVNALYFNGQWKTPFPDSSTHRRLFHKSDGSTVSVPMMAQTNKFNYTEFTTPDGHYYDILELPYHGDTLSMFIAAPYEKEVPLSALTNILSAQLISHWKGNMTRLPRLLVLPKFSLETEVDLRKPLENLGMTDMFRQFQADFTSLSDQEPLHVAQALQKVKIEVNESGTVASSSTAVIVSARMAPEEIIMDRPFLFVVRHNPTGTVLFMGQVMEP

Take `O=C(Nc1ccc(Cl)cc1C(=O)[O-])c1cccc(-c2cccc3cccnc23)c1.[Na+]` [Example 68, 5-chloro-2-(((3-(quinolin-8-yl)phenyl)carbonyl)amino)sodium benzoate]: the figures for the “PD-L1 expression induction by rPAI-1” value in assay [1] and in assay [2] were “completely inhibited the induction; also recorded: completely suppressed” and “completely inhibited the induction; also recorded: the same results as those of the leukemia cells”, respectively. Also, the “enhancement of PD-L1 expression by rPAI-1 in M2 macrophages” value in assay [3] was “completely suppressed”. In assay [4], the “PD-L1 expression level in M2 macrophages” value is listed as “reduction in the PD-L1 expression level”. Moreover, in the assay on M2 macrophages, the “number of macrophages in the tumor” value is given as “reduced”. In addition, the “percentage of M2 macrophages among macrophages” value in the assay with M2 macrophages was “reduced”. In addition, the “percentage of regulatory T cells in the tumor” value in assay [5] is “reduced”. In addition, the “percentage of intratumoral infiltration of cancer-associated fibroblasts” value in assay [6] is “reduced”. Also, the PAI-1 activity % at human PAI-1 (compound 10 μm (head)) came out at 2.1%; on human PAI-1 (compound 25 μm (head)), 2.4%.
